The target of one test is T1, human TLR7 (Homo sapiens, UniProt Q9NYK1).
T1 construct: host or cells: HEK-Blue hTLR7 (HEK293-derived reporter cells)
T1 sequence (Q9NYK1 27-1049): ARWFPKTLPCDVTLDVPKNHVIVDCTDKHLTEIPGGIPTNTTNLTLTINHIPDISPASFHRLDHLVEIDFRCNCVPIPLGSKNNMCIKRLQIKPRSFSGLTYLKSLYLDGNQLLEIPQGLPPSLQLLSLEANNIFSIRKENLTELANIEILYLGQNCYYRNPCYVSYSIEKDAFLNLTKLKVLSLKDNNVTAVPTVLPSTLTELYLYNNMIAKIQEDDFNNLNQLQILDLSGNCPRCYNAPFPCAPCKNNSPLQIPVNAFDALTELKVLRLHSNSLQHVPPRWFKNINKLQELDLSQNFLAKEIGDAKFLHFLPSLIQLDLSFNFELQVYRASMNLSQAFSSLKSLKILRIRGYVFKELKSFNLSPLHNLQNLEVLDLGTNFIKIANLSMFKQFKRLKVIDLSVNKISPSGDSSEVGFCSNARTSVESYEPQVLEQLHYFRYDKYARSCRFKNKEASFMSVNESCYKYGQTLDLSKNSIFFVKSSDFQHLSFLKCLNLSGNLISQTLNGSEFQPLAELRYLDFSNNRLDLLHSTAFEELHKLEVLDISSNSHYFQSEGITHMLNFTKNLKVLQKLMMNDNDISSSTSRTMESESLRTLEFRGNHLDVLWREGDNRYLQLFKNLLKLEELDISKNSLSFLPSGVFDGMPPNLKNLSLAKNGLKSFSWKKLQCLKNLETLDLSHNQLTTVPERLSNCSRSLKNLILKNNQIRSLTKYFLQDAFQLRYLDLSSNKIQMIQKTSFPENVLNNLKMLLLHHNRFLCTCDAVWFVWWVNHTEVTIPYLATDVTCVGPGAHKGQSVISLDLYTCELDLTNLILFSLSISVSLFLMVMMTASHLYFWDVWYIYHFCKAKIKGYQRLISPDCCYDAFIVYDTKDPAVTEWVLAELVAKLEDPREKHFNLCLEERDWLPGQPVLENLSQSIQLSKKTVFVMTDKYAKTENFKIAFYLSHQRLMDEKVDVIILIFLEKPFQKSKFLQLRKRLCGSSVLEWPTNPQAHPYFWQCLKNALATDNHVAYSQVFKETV
Nature of the test: HEK-Blue hTLR7 SEAP reporter gene agonist assay. In kind it is cell-based. As to conditions: HEK-Blue hTLR7 cells, 16 to 22 hours incubation. An outline of the steps: (§1)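 HEK-Blue cells stably expressing human TLR7 or TLR8 carry a SEAP reporter driven by a minimal IFN-β promoter fused to 5×NF-κB and AP-1 sites. Compounds at […] final, 16 to 22 h. SEAP in the medium measured with Quanti-blue at OD650, and EC50 derived.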
For orientation: Reporter assays use an easily measured gene product as a stand-in for the process of interest.

The target in the next test is T2, human TLR8 (Homo sapiens, UniProt Q9NR97).
T2 construct: host or cells: HEK-Blue hTLR8 (HEK293-derived reporter cells)
T2 sequence (Q9NR97 27-1041): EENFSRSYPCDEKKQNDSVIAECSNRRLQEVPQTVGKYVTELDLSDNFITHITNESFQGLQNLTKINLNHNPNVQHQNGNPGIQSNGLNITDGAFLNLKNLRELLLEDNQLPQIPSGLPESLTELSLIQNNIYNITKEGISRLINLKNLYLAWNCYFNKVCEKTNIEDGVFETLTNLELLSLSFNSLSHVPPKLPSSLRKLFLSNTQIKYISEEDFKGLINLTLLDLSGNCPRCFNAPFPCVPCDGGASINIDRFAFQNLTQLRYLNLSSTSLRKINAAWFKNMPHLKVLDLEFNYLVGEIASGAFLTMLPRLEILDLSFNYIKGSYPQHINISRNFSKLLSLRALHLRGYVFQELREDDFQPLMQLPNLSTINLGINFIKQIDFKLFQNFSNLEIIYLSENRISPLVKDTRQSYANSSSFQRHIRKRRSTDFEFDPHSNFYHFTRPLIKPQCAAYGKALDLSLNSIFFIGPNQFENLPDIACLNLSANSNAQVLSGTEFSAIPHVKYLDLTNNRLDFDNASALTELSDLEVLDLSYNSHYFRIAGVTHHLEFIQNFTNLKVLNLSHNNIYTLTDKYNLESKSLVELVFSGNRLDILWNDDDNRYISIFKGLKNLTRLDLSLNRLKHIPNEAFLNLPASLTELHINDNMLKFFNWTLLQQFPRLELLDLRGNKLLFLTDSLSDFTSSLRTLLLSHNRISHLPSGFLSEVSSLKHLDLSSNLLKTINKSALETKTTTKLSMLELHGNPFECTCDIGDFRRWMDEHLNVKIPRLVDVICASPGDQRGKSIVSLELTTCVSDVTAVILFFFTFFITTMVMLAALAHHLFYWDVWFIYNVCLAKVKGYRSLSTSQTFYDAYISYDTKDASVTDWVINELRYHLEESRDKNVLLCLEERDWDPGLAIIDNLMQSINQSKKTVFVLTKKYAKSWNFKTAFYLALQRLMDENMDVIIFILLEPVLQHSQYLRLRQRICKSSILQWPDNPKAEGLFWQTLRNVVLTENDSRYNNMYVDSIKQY
The test can be described thus: HEK-Blue hTLR8 SEAP reporter gene agonist assay. In kind it is cell-based. As to conditions: HEK-Blue hTLR8 cells, 16 to 22 hours incubation. An outline of the steps: as §1

For 4 molecules, EC50 results are on record in US20250059183A1, “PYRIDINE[4,3-D]PYRIMIDINE COMPOUND AS TLR7/8 AGONIST” (SHANGHAI VISONPHARMA CO., LTD., priority 2021, published 2025).

What is called EC50 is the concentration that produces a half-maximal response. Low readings indicate an effect from little substance, high ones a need for much substance.

Each structure is given as a SMILES string.

For `CCC[C@@H](C)Nc1nc(N)nc2ccn(Cc3ccc(CN4CCN(CCN)CC4)cc3OC)c(=O)c12` [Compound I-213, (R)-2-amino-6-(4-((4-(2-aminoethyl)piperazin-1-yl)methyl)-2-methoxybenzyl)-4-(pentan-2-ylamino)pyrido[4,3-d]pyrimidin-5(6H)-one], the EC50 on human TLR7 worked out at 100 nM; at human TLR8, 9 nM.

As to `CCC[C@@H](CO)Nc1nc(N)nc2ccn(Cc3ccc(CNC)cc3OC)c(=O)c12` [Compound I-214, (S)-2-amino-4-((1-hydroxypentan-2-yl)amino)-6-(2-methoxy-4-((methylamino)methyl)benzyl)pyrido[4,3-d]pyrimidin-5(6H)-one], the half-maximal effective concentration (EC50) at human TLR7 stood at 86 nM; on human TLR8 it was 3 nM.

Consider `CCC[C@@H](C)Nc1nc(N)nc2ccn(Cc3ccc(CN4CCN(CCCO)CC4)cc3OC)c(=O)c12` [Compound I-216, (R)-2-amino-6-(4-((4-(3-hydroxypropyl)piperazin-1-yl)methyl)-2-methoxybenzyl)-4-(pentan-2-ylamino)pyrido[4,3-d]pyrimidin-5(6H)-one], for which the EC50 at human TLR7 was 63 nM; on human TLR8 it was 40 nM.

On to `CCC[C@@H](CO)Nc1nc(N)nc2ccn(Cc3ccc(CN4CCN(CCCCCCN)CC4)cc3OC)c(=O)c12` [Compound I-217, (S)-2-amino-6-(4-((4-(6-aminohexyl)piperazin-1-yl)methyl)-2-methoxybenzyl)-4-((1-h hydroxypentan-2-yl)amino)pyrido[4,3-d]pyrimidin-5(6H)-one], for which the EC50 at human TLR7 was 100 nM; at human TLR8, 35 nM.
